Experiments:
[1] = tested on: myeloid CD11c+/CD123− DCs; assay: FACS, myeloid DC activation in whole blood; assay type: cell-based, human; details: 24 hours; 0.1 and 0.5 uM
Experimental: The FACS analysis for donor 1 and donor 2 was made on another day than donor 3. The compound concentrations were as follows:
B cell activation: 2 and 10 uM mDC/pDC: 0.1 and 0.5 uM
The FACS analysis was used to identify whether the test compounds could induce activation of B cells, and two different subsets of dendritic cells, namely the myeloid CD11c+/CD123− DCs and the plasmacytoid CD11c−/CD123+DCs. The following markers were studied to identify the activation status of the different subsets:
The FACS staining was performed according to the manufacturer's instructions. Lysis of red blood cells was performed before FACS staining in order to minimize auto-florescence. To include as many B cells and DCs in the study as possible the FACS analyses were performed on 500,000 cells in total for each staining. A P1 gate was set only to include relevant cells on FSC vs. SSC (see FIGS. 12-15). The results of the individual analysis were present as Mean Fluorescence Intensity (MFI) values, for certain activation marker in a given gate setting, represent the actual cell subset. The isotype background values have been used to set the gates so that a maximum at 2% of unspecific stained cells could be found in the positive gates.
The analysis of myeloid DCs was based on HLA-DR+/CD11c+/CD123-cells, thus all analyzed cells was included in the HLA-DR+(P3) gate and CD11c+/CD123− (Q4) gate (see gates in FIGS. 13-15).

[2] = biological target: T1, CYP3A5 (Homo sapiens, UniProt P20815); assay: Fluorescent High Throughput P450 assay, CYP3A5; assay type: biochemical
T1 construct: purchased Gentest
Experimental: Inhibition of the P450 isoforms was measured in specific assays using specific substrates that become fluorescent upon CYP metabolism. Compounds, dissolved in ACN (acetonitrile) (CYP2E1, CYP2C8, CYP2B6, CYP3A5) or DMSO (all remaining isoforms), were tested in duplicate (n=2) in concentration-response curves (eight concentrations) in a 96-well plate containing incubation/NADPH regenerating buffer. Specific isoenzymes and substrates were added and incubated at 37° C. Reactions were terminated at different times, depending on the assays, and plates read on a Fluoroskan Ascent at the appropriate emission/excitation wavelengths. Concentration-response curves performed in duplicate for known inhibitors for each isoenzyme were tested in every assay as positive control.

[3] = Intrabladder application, serum cytokines (Luminex) and histology; assay type: in vivo, mouse
Experimental: Female C57BU6 mice were anesthetized with ketamine/xylazine. The 50 microliter formulated compounds were intravesically administered for twenty minutes at each treatment. The treatment schedule and doses are in Table 35 and 36, respectively. The levels of cytokines (IL-6, IL-12, and TNF-alpha) were determined by Luminex assay. Paraffin sections were prepared and H & E staining performed.

[4] = In vivo pharmacodynamics, serum cytokines after intravenous injection; design: species or system mouse; details: 200 nmol intravenously
Experimental: For in vivo pharmacodynamic experiments, 6- to 8-week old C57BU6 mice were intravenously injected with the unconjugated and phospholipid-conjugated TLR7 agonists (200 nmol). Sera were separated and kept at −20° C. until use. The levels of cytokines in the sera were measured by Luminex bead microassay. The minimum detection levels of IL-6 and TNF-alpha were 5 pg/mL and 10 pg/mL, respectively.

[5] = tested on: Inv-Myc mice; assay: Mouse skin cancer model (Inv-Myc mice, Tamoxifen induction), topical creams; assay type: in vivo
Experimental: The mice used are essentially discussed in Pelengaris, S., et al., (1999) Molecular Cell 3:565-77. Activation of c-myc in this model, such as by the application of Tamoxifen, leads to increased keratinocyte proliferation, reversible epidermal hyperplasia, and papillomatosis changes.
Sex-matched 8-15 week old Inv-Myc mice were used for the study. The mice were shaved on the back 24 hours before the daily Tamoxifen induction (1 mg/200 microliters ethanol, day 0 to 7) to an area 5×3 cm^2. […] Mice were sacrificed on day 10. […] Sera were collected when mice were sacrificed and 2 hours after the first cream application in some instances.

[6] = tested on: HLA-DR+/CD20+ B cells; assay: FACS, B cell activation in whole blood; assay type: cell-based, human; details: 24 hours; 2 and 10 uM
Experimental: B-cells: HLA-DR/CD20/CD40
The FACS staining was performed according to the manufacturer's instructions. Lysis of red blood cells was performed before FACS staining in order to minimize auto-florescence. To include as many B cells and DCs in the study as possible the FACS analyses were performed on 500,000 cells in total for each staining. […] The results of the individual analysis were present as Mean Fluorescence Intensity (MFI) values, for certain activation marker in a given gate setting, represent the actual cell subset. The isotype background values have been used to set the gates so that a maximum at 2% of unspecific stained cells could be found in the positive gates.
The analysis of expression of the activation marker CD40 on B cells was made on double positive HLA-DR (MHC class II) (P4 gate) and CD20 cells (B cell marker) (P8 gate).

[7] = tested on: AY-27 rat bladder cancer cell-line; assay: Orthotopic rat bladder cancer model, intravesical instillation; details: of 14 per group
[8] = tested on: Cutaneous Squamous Cell Carcinoma (SCC) cell lines SCL-I, SCL-II, SCC-12, SCC-13
Experimental: SCC cells are grown under standard conditions (10% FBS).
Time and dose dependency of effects on total cell numbers have been investigated by real-time cell analysis, which is based on continuous monitoring of electric conductance in microtiter wells (E-plates, Roche), which corresponds to the cell numbers. […] For these assays 4 cell lines may be used to obtain a representative overview on the effects on SCC cells.

[9] = tested on: human whole blood; assay: Cytokine secretion in human whole blood assay, ELISA; assay type: cell-based; details: whole blood, 6 hours
Experimental: Before drawing the blood, the compounds were added to 96 well round bottom plates in a 10× diluted sample at 20 ul. The compounds were diluted in RPMI media without serum but with antibiotics. Antibiotics were added at a 10× concentration. After drawing the blood, the whole blood sample was gently mixed to obtain a homogeneous sample, and 180 ul was added to each well.
All compounds were setup in concentrations at 0-0.01-0.03-0.1-0.5-2.0-10.0 micromolar as the final concentration. Vehicle control was DMSO control, where we used the highest concentration used for the compounds. After addition of blood, all plates were gently agitated at 37° C. and 5% CO2 until harvest.
For the 6 hours time point, the plate was centrifuged 500×g. Supernatant (SN) was transferred to a tube and centrifuged at 10.000×g for 10 min to get rid of cells and protein aggregates. The clarified supernatant was frozen at −80° C. until analysis.
The SN was removed to another tube and centrifuged at 10.000×g for 10 min. to get rid of aggregates etc. The clarified supernatant was frozen at −80° C. until analysis.
Concentrations of cytokines were determined by ELISA from R&D Systems. The results were analyzed in Graph Pad Prism in order to prepare dose-response
curves, and for determination of EC50 values. FACS analysis was made by using Becton-Dickinson FACSDiva software and subsequently illustrated in Graph Pad Prism.

T1 sequence (P20815 whole entry): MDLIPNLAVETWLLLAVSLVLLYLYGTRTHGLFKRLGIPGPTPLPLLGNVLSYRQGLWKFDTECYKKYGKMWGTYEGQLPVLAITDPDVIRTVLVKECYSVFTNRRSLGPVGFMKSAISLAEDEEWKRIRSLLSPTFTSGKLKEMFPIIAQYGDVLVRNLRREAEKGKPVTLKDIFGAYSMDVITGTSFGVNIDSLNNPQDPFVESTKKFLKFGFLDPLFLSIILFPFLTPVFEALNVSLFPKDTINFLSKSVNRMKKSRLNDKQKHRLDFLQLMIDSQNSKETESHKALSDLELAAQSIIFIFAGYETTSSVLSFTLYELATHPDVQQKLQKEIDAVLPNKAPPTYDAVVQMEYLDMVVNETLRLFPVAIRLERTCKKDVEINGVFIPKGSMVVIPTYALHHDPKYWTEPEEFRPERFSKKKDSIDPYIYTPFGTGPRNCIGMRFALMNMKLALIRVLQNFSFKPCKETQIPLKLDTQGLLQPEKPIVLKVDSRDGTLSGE

CCCCCCCCCCCC(=O)OCC(COP(=O)(O)OCCNC(=O)c1ccc(Cn2c(=O)[nH]c3c(N)nc(OCCOC)nc32)cc1)OC(=O)CCCCCCCCCCC (stereo not shown) [SC12]
CCR7 expression in mDCs (MFI, words) [1]: less potent stimulator of CCR7 expression
CD80 expression in mDCs (MFI, words) [1]: noteworthy CD80 expression in all three donors
CD86 expression in mDCs (MFI, words) [1]: weak CD86 expression in donor 2 and 3, but not in donor 1
inhibition of CYP3A5 [2]: moderate inhibition
serum IL-12 ([3]; day 0, 2 hour time point, intravesical about 207 nmoles in 50 μl): elevated levels of IL-12
bladder histology, cell infiltration ([3]; day 7): immune cell infiltration in the bladder
time course of cytokine induction [4]: lower but sustained cytokine induction than the free ligand
serum proinflammatory cytokine levels ([4]; C57BL/6 mice): induced similar levels of the proinflammatory cytokines IL-6, IL-12 and TNF-alpha
serum IL-6 ([5]; 2 hours after the first administration): less IL-6 than Aldara
Ki67 positive cells ([5]; Experiment 1): decreased Ki67 positive cells
gross appearance of skin ([5]; Experiment 1): redness and scaling
gross appearance of skin ([5]; Experiment 2): smooth and soft
skin thickness ([5]; Experiment 2): decreased development of skin thickness
acanthosis ([5]; cream every other day, days 0-8): reduction in acanthosis
eczematous reaction ([5]; mouse, in vivo): less eczematous reaction than Aldara (Imiquimod) cream
CD40 expression on B cells (MFI, words) [6]: induced CD40 expression in donor 1 and donor 2 in all tested concentrations
Number of rat bladders Tumor free [7]: 6
Number of rat bladders with pT2 Tumor [7]: 7
Number of rat bladders with pTa Tumor [7]: 1
Tumor free, share of group [7]: 42.9%
pT2 Tumor, share of group [7]: 50.0%
pTa Tumor, share of group [7]: 7.1%
cell numbers, real-time cell analysis ([8]; FIG. 11): reduced cell numbers
morphology and proliferation ([8]; day 3, 120 microM): cell detachment, morphological changes and inhibition of proliferation
IL-10 production [9]: no IL-10 production was seen
